Where two headings read alike, the source gives them in different places.
Experiments:
CDK9/CycT1 = biological target: T1, CDK9/CycT1 (Homo sapiens, UniProt P50750); assay: CDK9/CycT1 high ATP kinase assay (TR-FRET, 2 mM ATP); assay type: biochemical; conditions: 2 mM ATP (high ATP); median; read-out: CDK9/CyclinT1, 2 mM ATP (high ATP), IC50 (median)
T1 construct: Recombinant full-length His-tagged human CDK9 and CycT1; purchased Life Technologies PV4131; host or cells: insect cells
Method in brief: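 Full-length His-tagged human CDK9/CycT1 (insect cell, ~0.5 μg/mL) preincubated 15 min at 22 °C with compound in Tris pH 8.0, MgCl2, DTT buffer before reaction with biotinylated peptide substrate at high ATP (2 mM).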

[1] = test system: CAL-120, human breast adenocarcinoma cells; assay: Proliferation assay CAL-120 (crystal violet, 4 days); assay type: cell-based; conditions: CAL-120 cells, median, read-out: Prolif-CAL-120, IC50-[mol/l] (median)
Method in brief: (§1)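 Crystal violet proliferation read-out after 4 days of compound exposure (0.01-10 µmol/L; solvent 0.1% DMSO). Extinction at 595 nm, set between zero-point (0%) and vehicle (100%), fitted with 4 parameters to give IC50.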

[2] = test system: MDA-MB-231, human breast cancer cells; assay: Proliferation assay MDA-MB-231 (crystal violet, 4 days); assay type: cell-based; conditions: MDA-MB-231 cells, median, read-out: Prolif-MDA MB-231, IC50-[mol/l] (median)
Method in brief: as §1

T1 sequence (P50750 whole entry): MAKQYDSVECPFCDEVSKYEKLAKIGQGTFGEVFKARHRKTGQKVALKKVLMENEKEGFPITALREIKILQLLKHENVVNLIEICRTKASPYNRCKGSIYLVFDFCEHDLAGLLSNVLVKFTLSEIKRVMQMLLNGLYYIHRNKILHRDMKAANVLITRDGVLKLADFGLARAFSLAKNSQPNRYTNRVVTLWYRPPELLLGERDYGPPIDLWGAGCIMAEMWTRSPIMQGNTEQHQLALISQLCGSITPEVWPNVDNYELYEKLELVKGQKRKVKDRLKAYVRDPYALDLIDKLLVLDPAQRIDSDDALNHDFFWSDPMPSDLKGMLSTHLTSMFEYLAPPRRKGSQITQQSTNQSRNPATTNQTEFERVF
T1 sequence (O60563 whole entry partner): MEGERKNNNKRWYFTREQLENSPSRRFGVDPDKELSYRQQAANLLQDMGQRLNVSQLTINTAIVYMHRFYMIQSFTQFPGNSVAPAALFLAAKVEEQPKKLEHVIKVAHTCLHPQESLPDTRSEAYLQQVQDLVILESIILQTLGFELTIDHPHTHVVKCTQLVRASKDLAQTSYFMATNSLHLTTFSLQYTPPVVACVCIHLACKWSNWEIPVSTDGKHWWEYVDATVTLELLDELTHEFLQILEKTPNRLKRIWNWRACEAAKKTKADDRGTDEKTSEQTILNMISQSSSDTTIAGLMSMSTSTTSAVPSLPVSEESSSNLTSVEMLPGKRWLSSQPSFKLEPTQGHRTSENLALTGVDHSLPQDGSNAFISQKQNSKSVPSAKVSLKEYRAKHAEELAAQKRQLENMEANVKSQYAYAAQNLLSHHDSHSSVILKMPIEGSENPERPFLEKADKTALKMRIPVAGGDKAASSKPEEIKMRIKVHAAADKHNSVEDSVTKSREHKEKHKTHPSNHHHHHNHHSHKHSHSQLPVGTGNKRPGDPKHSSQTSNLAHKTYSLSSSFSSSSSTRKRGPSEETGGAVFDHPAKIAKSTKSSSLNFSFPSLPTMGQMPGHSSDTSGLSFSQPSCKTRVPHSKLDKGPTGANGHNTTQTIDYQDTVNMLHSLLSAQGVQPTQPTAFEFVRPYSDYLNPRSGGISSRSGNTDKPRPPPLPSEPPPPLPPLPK

| Compound | IC50 (CDK9/CycT1) [nM] | IC50 ([1]; Homo sapiens, CAL-120, 96 h) [nM] | IC50 ([2]; Homo sapiens, MDA-MB-231, 96 h) [nM] | IC50 [1] [nM] | IC50 [2] [nM] |
| --- | --- | --- | --- | --- | --- |
| CC[C@H](CO)Nc1nc(NCc2nc3ccccc3[nH]2)n2ncc(Br)c2n1 [Example 368, (2R)-2-[(4-{[(1H-benzimidazol-2-yl)methyl]amino}-8-bromopyrazolo[1,5-a][1,3,5]triazin-2-yl)amino]butan-1-ol] | > 20000 | 94.9 | 173 | – | – |
| Fc1cc2nc(CNc3nc(N4C[C@H]5CC[C@@H](C4)N5)nc4c(C5CC5)cnn34)[nH]c2cc1Cl [Example 328, N-[(6-chloro-5-fluoro-1H-benzimidazol-2-yl)methyl]-8-cyclopropyl-2-[(1R,5S)-3,8-diazabicyclo[3.2.1]octan-3-yl]pyrazolo[1,5-a][1,3,5]triazin-4-amine] | 15000 | 0.901 | 1.04 | – | – |
| CN1CCC(Oc2nc(NCc3nc4ccccc4[nH]3)n3ncc(Br)c3n2)CC1 [Example 389, N-[(1H-benzimidazol-2-yl)methyl]-8-bromo-2-[(1-methylpiperidin-4-yl)oxy]pyrazolo[1,5-a][1,3,5]triazin-4-amine] | > 20000 | 52.7 | 332 | – | – |
| Fc1c(Cl)ccc2[nH]c(CNc3nc(N4CC5CCC(C4)N5)nc4c(Br)cnn34)nc12 [Example 380, 8-bromo-N-[(5-chloro-4-fluoro-1H-benzimidazol-2-yl)methyl]-2-(3,8-diazabicyclo[3.2.1]octan-3-yl)pyrazolo[1,5-a][1,3,5]triazin-4-amine] | 5930 | 1.72 | 2.19 | – | – |
| FC(F)(F)c1ccc2[nH]c(CNc3nc(N4CC5CCC(C4)N5)nc4c(C5CC5)cnn34)nc2c1 [Example 327, 8-cyclopropyl-2-(3,8-diazabicyclo[3.2.1]octan-3-yl)-N-{[5-(trifluoromethyl)-1H-benzimidazol-2-yl]methyl}pyrazolo[1,5-a][1,3,5]triazin-4-amine] | > 20000 | 2.28 | 2.27 | – | – |
| CN1CCN(c2nc(NCc3nc4cc(C(F)(F)F)ccc4[nH]3)n3ncc(Br)c3n2)CC1 [Example 344, 8-bromo-2-(4-methylpiperazin-1-yl)-N-{[5-(trifluoromethyl)-1H-benzimidazol-2-yl]methyl}pyrazolo[1,5-a][1,3,5]triazin-4-amine] | > 20000 | 2.7 | 4.82 | – | – |
| CN1CCN(c2nc(NCc3nc4cc(OC(F)(F)F)ccc4[nH]3)n3ncc(Br)c3n2)CC1 [Example 377, 8-bromo-2-(4-methylpiperazin-1-yl)-N-{[5-(trifluoromethoxy)-1H-benzimidazol-2-yl]methyl}pyrazolo[1,5-a][1,3,5]triazin-4-amine] | > 20000 | 79.3 | 116 | – | – |
| CN1CCN(c2nc(NCc3nc4c(OC(F)(F)F)cccc4[nH]3)n3ncc(Br)c3n2)CC1 [Example 376, 8-bromo-2-(4-methylpiperazin-1-yl)-N-{[4-(trifluoromethoxy)-1H-benzimidazol-2-yl]methyl}pyrazolo[1,5-a][1,3,5]triazin-4-amine] | > 20000 | 36.8 | 102 | – | – |
| CN1C2CCC1CN(c1nc(NCc3nc4c(F)c(F)ccc4[nH]3)n3ncc(C(F)(F)F)c3n1)C2 [Example 356, N-[(4,5-difluoro-1H-benzimidazol-2-yl)methyl]-2-(8-methyl-3,8-diazabicyclo[3.2.1]octan-3-yl)-8-(trifluoromethyl)pyrazolo[1,5-a][1,3,5]triazin-4-amine] | > 20000 | 2.1 | 5.25 | – | – |
| FC(F)(F)Oc1cccc2[nH]c(CNc3nc(N4CCOCC4)nc4c(Br)cnn34)nc12 [Example 375, 8-bromo-2-(morpholin-4-yl)-N-{[4-(trifluoromethoxy)-1H-benzimidazol-2-yl]methyl}pyrazolo[1,5-a][1,3,5]triazin-4-amine] | 14500 | 68.6 | 142 | – | – |
| CC[C@H](COC)Nc1nc(NCc2nc3ccccc3[nH]2)n2ncc(Br)c2n1 [Example 369, N4-[(1H-benzimidazol-2-yl)methyl]-8-bromo-N2-[(2R)-1-methoxybutan-2-yl]pyrazolo[1,5-a][1,3,5]triazine-2,4-diamine] | > 20000 | 140 | 297 | – | – |
| Brc1cnn2c(NCc3nc4ccccc4[nH]3)nc(N3C[C@H]4CC[C@@H]3CN4)nc12 (single isomer, unassigned) [Example 335, N-[(1H-benzimidazol-2-yl)methyl]-8-bromo-2-{[1R or S-(1R*,4R*)]-2,5-diazabicyclo[2.2.2]octan-2-yl}pyrazolo[1,5-a][1,3,5]triazin-4-amine] | > 20000 | – | – | 4.24 | 10.5 |
| Brc1cnn2c(NCc3nc4ccccc4[nH]3)nc(N3CCN4CCC3C4)nc12 (stereo not drawn) [Example 350, N-[(1H-benzimidazol-2-yl)methyl]-8-bromo-2-(1,4-diazabicyclo[3.2.1]octan-4-yl)pyrazolo[1,5-a][1,3,5]triazin-4-amine] | > 20000 | 4.35 | 13.7 | – | – |
| Cc1cc2nc(CNc3nc(N(C)CC(C)(C)O)nc4c(Br)cnn34)[nH]c2cc1C [Example 343, 1-[(8-bromo-4-{[(5,6-dimethyl-1H-benzimidazol-2-yl)methyl]amino}pyrazolo[1,5-a][1,3,5]triazin-2-yl)(methyl)amino]-2-methylpropan-2-ol] | 4270 | 1.82 | 2.84 | – | – |
| CN1CCN(c2nc(NCc3nc4c(F)c(Cl)ccc4[nH]3)n3ncc(C4CC4)c3n2)CC1 [Example 371, N-[(5-chloro-4-fluoro-1H-benzimidazol-2-yl)methyl]-8-cyclopropyl-2-(4-methylpiperazin-1-yl)pyrazolo[1,5-a][1,3,5]triazin-4-amine] | > 20000 | 3.9 | 7.8 | – | – |
| Fc1ccc2[nH]c(CNc3nc(N4CCOCC4)nc4c(Cl)cnn34)nc2c1F [Example 357] | 10000 | 4.33 | 10.4 | – | – |
| CN1C2CCC1CN(c1nc(NCc3nc4c(F)cccc4[nH]3)n3ncc(C(F)(F)F)c3n1)C2 [Example 384, N-[(4-fluoro-1H-benzimidazol-2-yl)methyl]-2-(8-methyl-3,8-diazabicyclo[3.2.1]octan-3-yl)-8-(trifluoromethyl)pyrazolo[1,5-a][1,3,5]triazin-4-amine] | > 20000 | 3.48 | 8.48 | – | – |
| Cc1cc2nc(CNc3nc(N4CCOCC4)nc4c(Br)cnn34)[nH]c2cc1C [Example 340, 8-bromo-N-[(5,6-dimethyl-1H-benzimidazol-2-yl)methyl]-2-(morpholin-4-yl)pyrazolo[1,5-a][1,3,5]triazin-4-amine] | 12600 | 3.36 | 4.36 | – | – |
| Cc1cc2nc(CNc3nc(N4CCOCC4)nc4c(C5CC5)cnn34)[nH]c2cc1C [Example 320, 8-cyclopropyl-N-[(5,6-dimethyl-1H-benzimidazol-2-yl)methyl]-2-(morpholin-4-yl)pyrazolo[1,5-a][1,3,5]triazin-4-amine] | > 20000 | 4.24 | 4.17 | – | – |
| Clc1cc2nc(CNc3nc(N4CC5CCC(C4)N5)nc4c(Br)cnn34)[nH]c2cc1Cl [Example 334, 8-bromo-2-(3,8-diazabicyclo[3.2.1]octan-3-yl)-N-[(5,6-dichloro-1H-benzimidazol-2-yl)methyl]pyrazolo[1,5-a][1,3,5]triazin-4-amine] | 8140 | 1.72 | 2.18 | – | – |
| Fc1ccc(-c2nnc(CNc3nc(N4CCOCC4)nc4c(Br)cnn34)[nH]2)cc1 [Example 29, 8-bromo-N-{[5-(4-fluorophenyl)-4H-1,2,4-triazol-3-yl]methyl}-2-(morpholin-4-yl)pyrazolo[1,5-a][1,3,5]triazin-4-amine] | 2400 | 170 | 89.9 | – | – |
| FC(F)(F)Oc1cccc2[nH]c(CNc3nc(N4C[C@H]5CC[C@@H](C4)N5)nc4c(Br)cnn34)nc12 [Example 381, 8-bromo-2-[(1R,5S)-3,8-diazabicyclo[3.2.1]octan-3-yl]-N-{[4-(trifluoromethoxy)-1H-benzimidazol-2-yl]methyl}pyrazolo[1,5-a][1,3,5]triazin-4-amine] | 14000 | 30.8 | 43.5 | – | – |
| CN(CC(C)(C)O)c1nc(NCc2nc3cc(Cl)c(Cl)cc3[nH]2)n2ncc(Br)c2n1 [Example 331, 1-[(8-bromo-4-{[(5,6-dichloro-1H-benzimidazol-2-yl)methyl]amino}pyrazolo[1,5-a][1,3,5]triazin-2-yl)(methyl)amino]-2-methylpropan-2-ol] | 4900 | 3.08 | 3.75 | – | – |
| Fc1cccc2[nH]c(CNc3nc(N4CC5CCC(C4)N5)nc4c(Cl)cnn34)nc12 [Example 363, 8-chloro-2-(3,8-diazabicyclo[3.2.1]octan-3-yl)-N-[(4-fluoro-1H-benzimidazol-2-yl)methyl]pyrazolo[1,5-a][1,3,5]triazin-4-amine] | > 20000 | 7.26 | 34.6 | – | – |

From patent US20230117034A1, “PYRAZOLOTRIAZINES” (Bayer Aktiengesellschaft, priority 2019, published 2023)
